# In patent US20180250306A1, “ALDEHYDE CONJUGATES AND USES THEREOF” (ALDEYRA THERAPEUTICS, INC., priority 2015, published 2018):
# Experiment: Preliminary single dose i.p. pharmacokinetics of NS2 and NS2-SSA adduct formation in wild type mice
# Assay type: in vivo, wild type C57B16 mice
# Description: Mice were 41-46 days old on the day of treatment, and groups (n=3) were balanced for age, gender and starting weight (18±3 g). […] The results of this study informed the design of a subsequent 8-hour single dose study to measure additional biochemical outcomes (GHB and related metabolites) in both SSADH deficient mice and wild type littermates.
# A preliminary assessment of single dose, i.p. pharmacokinetics (PK) was conducted in wild type C57B16 mice. Mice were 41-46 days old at the time of dosing. […] Three mice per timepoint were used for pharmacokinetic analysis. The study design is outlined in Table 6 below.
# Homogenates (100 μL) were protein-precipitated with cold acetonitrile containing 0.1% formic acid (900 μL). Serum samples (25 μL) were protein-precipitated with 425 μL of cold acetonitrile containing 0.1% formic acid. Samples were centrifuged at 2,500×g then supernatant was transferred to a clean tube and dried under a constant heated flow of nitrogen (50° C.). Samples were reconstituted in 100 μL of mobile phase A (water with 0.1% formic acid, LC-MS/MS grade reagents).
# These studies were performed only in wild-type C57B16 mice (n=21). […] The mice ranged in age from 41-46 days of age.
# [1] = wild type mice, single dose 10 mg/kg i.p.
smiles,measurement,setting,value
"CC(C)(O)c1nc2ccc(Cl)cc2cc1N [NS2, 2-(3-amino-6-chloroquinolin-2-yl)propan-2-ol]",concentration at 24 h,"both sexes, C57B16 (wild type), mouse, serum, ip, wild type mice, single dose 10 mg/kg i.p., by 24 hours",< 50 nM
same,tolerability,"mouse, in vivo, ip, 10 mg/kg",tolerated
same,brain penetration of NS2,[1],good brain penetration
same,order of NS2 pharmacokinetics,[1],first-order pharmacokinetics
same,peak serum concentration of NS2,[1],43.1 ± 15.4 µM
same,time to peak serum concentration of NS2,[1],0.5 h
same,peak concentration of NS2 in brain,"wild type mice, single dose 10 mg/kg i.p., brain",52.4±22.9
same,peak concentration of NS2 in liver,"wild type mice, single dose 10 mg/kg i.p., liver",116±3.1
